Laboratory results from patent US8951982B2, “Methods and compositions for the treatment of eye disorders with increased intraocular pressure” (Sylentis S.A.U., priority 2004, dated 2015).
d = 2'-deoxy (DNA)

Assays:
CA2 = experiment: siRNA transfection of cells, real time PCR of target gene expression; format: cell-based; details: 100 nM siRNA, mean ± SD, normalized to beta-actin
Protocol: (§1) Cells (either NPE, OMDC, or HEK293 cells) were incubated with various siRNA molecules and assayed for expression of the native mRNA corresponding to the siRNA molecule. One day prior to transfection, 2−4×10^5 cells were seeded into each well of a 6 well plate in 3 ml of growth medium (DMEM, 10% serum, antibiotics and glutamine) and incubated under normal growth conditions (37° C. and 5% CO2). Lipofectamine 2000 Reagent (Invitrogen Corporation, Carlsbad, Calif.) was used to transfect the cells with the siRNA molecules. The protocol supplied by the manufacturer was followed. Briefly, siRNA molecules were added to cells that were 30%-50% confluent to a final concentration of 100 nM. Prior to addition to the cells, the siRNA molecule was diluted in 250 μl DMEM and incubated at room temperature for 5 minutes. The siRNA was then mixed with 6 μl of Lipofectamine 2000 Reagent that also had been diluted in 250 μl DMEM and the mixture was incubated at room temperature for 20 minutes. The siRNA/Lipofectamine mixture was added to the cells drop-wise with 2 ml of fresh growth medium low in antibiotics. After swirling the plates to ensure uniform distribution of the transfection complexes, the cells were incubated under normal growth conditions for 24 hours. After incubation with either of the transfection complexes, the medium was removed and replaced with 3 ml of fresh complete growth medium. mRNA was collected from cells at 24, 48 and 72 hours post-transfection.
(§2) After transfection and incubation with a siRNA molecule, total RNA fractions were extracted from cells using protocols well known in the art. The effect of siRNAs on target gene expression was analyzed by real time PCR and semi-quantitative PCR according to standard protocols. Approximately 250 ng of total RNA was used for reverse transcription followed by PCR amplification with specific primers for the target gene in a reaction mixture containing SYBR Green I Dye (Applied Biosystems, Foster City, Calif.). Basic PCR conditions comprised an initial step of […], followed by 40 cycles of 5 s at 95° C., 10 s at 62° C. and 15 s at 72° C. Quantification of beta-actin mRNA was used as a control for data normalization.
(§3) The values represent the mean of the percentage of siRNA interference of each gene expression once normalized with the control cells and their standard deviations.

[1] = test system: Normotensive New Zealand White rabbits; experiment: In vivo rabbit model of IOP (contact tonometer); details: for decrease of IOP over a saline control: figure legends (FIGS. 5-8), 256 μg dose of siRNA per administration
Protocol: Normotensive New Zealand White rabbits (males, 2-3 kg) were used in the in vivo assays. The animals were kept in individual cages with free access to food and water. Animals were submitted to artificial 12 hours light/darkness cycles to avoid uncontrolled circadian oscillations of IOP and all experiments were performed at the same time of day to control for any fluctuations in IOP due to circadian oscillations. Animal handling and treatment were carried out in accordance with the European Communities Council Directive (86/609/EEC) and the statement of the Association for Research in Vision and Ophthalmology on the Use of Animals in Ophthalmic and Vision Research. Each animal was used for only one experiment.
IOP measurements were done using a contact tonometer (TonoPen XL, Mentor, Norwell, Mass.) due to past success of measuring intraocular pressures within the range of 3 to 30 mm Hg in rabbits (Abrams et al., 1996, Invest Ophthalmol Vis Sci. 37:940-4). Measurements were performed by delicately applying the tonometer's sensor to the corneal surface of the animal. All measurements fell within the 3 to 30 mm Hg interval with the mean baseline value of intraocular pressure being 17.0±0.39 mm Hg for untreated animals (n=100). In order to avoid distress to the animal, rabbits were topically anesthetized (10 μl of oxibuprocaine/tetracaine, 0.4%/1%, in a saline solution (1/4 v:v)) prior to IOP measurement.
Commercially available drugs were typically administered to the animals by instilling a small volume (typically 40 μl) on the corneal surface. Contralateral eyes were treated with the vehicle alone and were used as controls in each experiment.
siRNA molecules or commercially available drugs were typically administered to the animals as follows. Doses of siRNA in saline solution (0.9% w/v) to a final volume of 40 μl were applied to the corneal surface of one eye each day during four consecutive days. The opposite eye was taken as a control and 40 μl of sterile saline (0.9% w/v) was instilled on it at the same time points. Commercially available drugs were typically administered to the animals by instilling a small volume (typically 40 μl) on the corneal surface. Contralateral eyes were treated with the vehicle alone and were used as controls in each experiment. The IOP was measured before each application and at 2 h, 4 h and 6 h following the instillation for 10 days.
The data are summarized in Table 2 where values represent the mean of the normalized maximum percentage of IOP reduction after siRNA treatment and their standard deviations. The decrease in IOP was statistically significant for all the treated targets.

PTGS1 = experiment: siRNA transfection of cells, real time PCR of target gene expression; format: cell-based; details: 100 nM siRNA, mean ± SD
Protocol: as §1, §2, §3

PTGS2 = experiment: as above; format: cell-based; details: 100 nM siRNA, mean ± SD
Protocol: as §1, §2, §3

SEQ ID NO: 54: siRNA targeting CA2 (CUUCCCUGAGGAUCCUCAA; 3' dTdT, sugars by position and backbone not given here; listed as Homo sapiens)
% of gene transcript level in control cells (CA2; 24 h post-transfection): 37.97 ± 9.78% | % of gene transcript level in control cells (CA2; 48 h post-transfection): 61.45 ± 9.62%

SEQ ID NO: 66: siRNA targeting CA2 (CUUCACUUGGUUCACUGGA; 3' dTdT, sugars by position and backbone not given here; listed as Homo sapiens)
% of gene transcript level in control cells (CA2; 24 h post-transfection): 35.30 ± 9.73% | % of gene transcript level in control cells (CA2; 48 h post-transfection): 51.14 ± 16.49%

SEQ ID NO: 73: siRNA targeting human carbonic anhydrase II (CA2), 2 thymidine 3' overhang (GGUUGGCAGCGCUAAACCG; 3' dTdT, sugars by position and backbone not given here; listed as Homo sapiens)
% of gene transcript level in control cells (CA2; 24 h post-transfection): 76.25 ± 12.60% | % of gene transcript level in control cells (CA2; 48 h post-transfection): 84.57 ± 14.70% | decrease of IOP over a saline control [1]: 25%

SEQ ID NO: 353: siRNA targeting PTGS1 (prostaglandin endoperoxide synthase 1) (CCAUCUCUACCACUGGCAC; 3' dTdT, sugars by position and backbone not given here; listed as Homo sapiens)
% of gene transcript level in control cells (PTGS1; 24 h post-transfection): 42.25 ± 13.76% | % of gene transcript level in control cells (PTGS1; 48 h post-transfection): 42.68 ± 17.00%

SEQ ID NO: 369: siRNA targeting PTGS1 (CAUUGUCAAGACGGCCACA; 3' dTdT, sugars by position and backbone not given here; listed as Homo sapiens)
% of gene transcript level in control cells (PTGS1; 24 h post-transfection): 34.98 ± 14.33% | % of gene transcript level in control cells (PTGS1; 48 h post-transfection): 26.30 ± 10.91%

SEQ ID NO: 426: siRNA targeting PTGS2 (prostaglandin endoperoxide synthase 2) (GCAGGCUAAUACUGAUAGG; 3' dTdT, sugars by position and backbone not given here; listed as Homo sapiens)
% of gene transcript level in control cells (PTGS2; 24 h post-transfection): 68.68 ± 12.48% | % of gene transcript level in control cells (PTGS2; 48 h post-transfection): 70.17 ± 19.21% | decrease of IOP over a saline control [1]: 22% | IOP Reduction (% of saline control) ([1]; mean normalized maximum percentage of IOP reduction ± SD, topical to corneal surface, once daily for four consecutive days): 23.78 ± 2.27%
